Where a SMILES comes first, the peptide text is derived from it. [ ]: non-standard residue; d: D form. The star is where a group is joined. Pro(3S-CH2tBu) = CC(C)(C)C[C@H]1CCN[C@@H]1C(=O)O; X4 = CN(Cc1ccccc1)C(=O)/C=C/C(=O)N(CC(=O)O)N*; X3 = O=C(O)CN(N*)C(=O)COc1c(F)cccc1F; Quinaldoyl = O=C(c1ccc2ccccc2n1)*

For the assay, the target named is T1, Caspase-2 (Homo sapiens, UniProt P42575).
T1 construct: the Caspase-2 and Caspase-3 are human recombinant active enzymes; purchased Enzo Life ALX-201-057-U100
T1 sequence (P42575 170-325 limits assumed): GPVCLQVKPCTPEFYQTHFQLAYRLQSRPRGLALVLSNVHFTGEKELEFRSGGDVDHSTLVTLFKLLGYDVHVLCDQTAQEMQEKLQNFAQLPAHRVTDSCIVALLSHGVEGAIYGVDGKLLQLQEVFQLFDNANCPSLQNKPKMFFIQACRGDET
T1 sequence (P42575 348-452 limits assumed): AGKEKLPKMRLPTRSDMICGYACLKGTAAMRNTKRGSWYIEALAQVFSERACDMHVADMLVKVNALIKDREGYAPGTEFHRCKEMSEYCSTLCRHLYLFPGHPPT
The assay can be described thus: Caspase-2 inhibition assay for irreversible inhibitors (kinact/KI, continuous method). Type of assay: biochemical. The note with it: for Selectivity for Caspase 2: comparison of kinact/KI ratios regarding caspase 2 and 3. The procedure: The efficiency of the comparative compound Δ2Me-TRP601, that is an already known group II Caspase inhibitor (inhibitor of Caspase-2, Caspase-3 and Caspase-7), has been assessed by a similar protocol described in Chauvier et al., 2011 Cell Death Dis 2011, 2:e203.
In this example, the Caspase-2 and Caspase-3 are human recombinant active enzymes that are respectively provided by Enzo Life® (ALX-201-057-U100) and R&D Systems® (707-C3-010/CF).
Caspase-2 is used at a final concentration of 0.1 nM in a “Caspase-2 buffer” containing 20 mM HEPES (pH 7.4), 5 mM DTT, 2 mM EDTA, 0.1% CHAPS and 800 mM succinate. Caspase-3 is used at a final concentration of 0.5 nM in a “Caspase-3 buffer” containing 20 mM HEPES (pH 7.4), 0.1% CHAPS, 5 mM DTT, and 2 mM EDTA.
The peptide substrates used for the enzymatic activity measurements are Ac-DEVD-AMC and Ac-VDVAD-AMC commercialized by EnzoLife® (respectively referenced ALX-260-031-M005 and ALX-260-060-M005). They are fluorogenic due to the presence of their AMC (7-amino-4-methylcoumarin) end group. The releasing of AMC enables to follow the enzymatic activity in fluorescence unit RFU over time in a 96-wells microplate.
The fluorescence values are measured at 37° C. with a spectrofluorometer with a microplate reader BMG FLUOstar OPTIMA. This apparatus is driven by the software Biolise® and is equipped with thermoelectric cooling device by Peltier effect. The mathematical analyses of the experimental data are done with the software Kaleidagraph®.
The inhibitory properties of the tested compounds are evaluated by the determination of the kinact/KI ratio regarding either Caspase-2 or Caspase-3 wherein: • kinact is the maximal inactivation rate constant, and • KI is the dissociation constant according to:
Said ratio is measured according to the continuous method (Allison R D. Curr Protoc Protein Sci. 2001 May; Chapter 3:Unit 3.5.; Chauvier et al., 2011 Cell Death Dis 2:e203; Tan et al., J Med Chem 2015, […]).
Briefly, Caspases activities were determined by monitoring the hydrolysis of fluorogenic substrates (λexc=355 nm, λem=460 nm) as a function of time, in the presence of untreated Caspases (control) or Caspases that had been incubated with a test compound, for 30 min minimum at 37° C. using a BMG Fluostar microplate reader (black 96-well microplates) and the initial velocity (V0) was determined from the linear portion of the progress curve.
Substrates and compounds were previously dissolved in DMSO at 10 mM, with the final solvent concentration kept at lower 4% (v/v). V0, relative velocities, KM and IC50 were determined from experimental data using Mars data Analysis 2.0 and Kaleidagraph softwares.
Inhibitor binding affinity (dissociation constant, KI) and first-order rate constant (k3) parameters were determined for Caspase-2 and Caspase-3 using the progress curve method. The ratio k3/KI was obtained by fitting the experimental data to the equations (F.U., fluorescence unit): […]
A continuous method of determination of the kinact/KI ratio was used for evaluating the inhibitory activity of the tested compounds against Caspase-2 and Caspase-3.
The reaction mixture is prepared by letting the enzyme and the buffer incubate at 37° C.
The tested inhibitory compounds are prepared at different concentrations (¼ IC50; ½ IC50; IC50; 2 IC50; 4 IC50) and put in the microplate.
Then the reaction mixture comprising the enzyme, the buffer and the substrate is rapidly added in the wells.
The activities of the enzyme are measured between 45 and 60 minutes.
The RFU (Relative Fluorescence Units)=f(times) curves are traced for each concentration of tested molecule according to the following equation: ((((−V0)*(exp(−kobs*m0)))+V0)/kobs*)+RFU0
in which: • V0 corresponds to the initial rate (RFU·s^−1) in the concentration of 0 of the tested inhibitory compound; • kobs is the inactivation rate constant; • RFU0 is the fluorescence value at t=0 min; and • m0 is the variable i.e. the inhibitor concentration.

With `CC(C)[C@H](NC(=O)c1ccc2ccccc2n1)C(=O)N[C@@H](CC(=O)O)C(=O)N[C@H](C(=O)N1CC[C@H](CC(C)(C)C)[C@H]1C(=O)NN(CC(=O)O)C(=O)/C=C/C(=O)N(C)Cc1ccccc1)C(C)C` [Compound 5, (S)-4-(((S)-1-((2S,3S)-2-(2-((E)-4-(benzyl(methyl)amino)-4-oxobut-2-enoyl)-2-(carboxymethyl)hydrazinecarbonyl)-3-neopentylpyrrolidin-1-yl)-3-methyl-1-oxobutan-2-yl)amino)-3-((S)-3-methyl-2-(quinoline-2-carboxamido)butanamido)-4-oxobutanoic acid] (Quinaldoyl-VDV[Pro(3S-CH2tBu)]-X4), the “type of inhibition (irreversible)” value is “irreversible inhibitor” and the “Selectivity for Caspase 2” value is “yes”.
For the compound `CC(C)[C@H](NC(=O)[C@H](CC(=O)O)NC(=O)C(=O)Nc1ccccc1C(C)(C)C)C(=O)N1CC[C@H](CC(C)(C)C)[C@H]1C(=O)NN(CC(=O)O)C(=O)COc1c(F)cccc1F` [Compound 6, (S)-3-(2-((2-(tert-butyl)phenyl)amino)-2-oxoacetamido)-4-(((S)-1-((2S,3S)-2-(2-(carboxymethyl)-2-(2-(2,6-difluorophenoxy)acetyl)hydrazinecarbonyl)-3-neopentylpyrrolidin-1-yl)-3-methyl-1-oxobutan-2-yl)amino)-4-oxobutanoic acid], the “type of inhibition (irreversible)” value is listed as “irreversible inhibitor” and the “Selectivity for Caspase 2” value was “yes”.
With `CC(C)[C@H](NC(=O)c1ccc2ccccc2n1)C(=O)N[C@@H](CC(=O)O)C(=O)N[C@H](C(=O)N1CC[C@H](CC(C)(C)C)[C@H]1C(=O)N[C@@H](CC(=O)O)C(=O)COc1c(F)cccc1F)C(C)C` (single isomer, unassigned) [Compound 2 enantiomer a], the “k3/KI Casp2” value (human recombinant Caspase-2 0.1 nM, 37° C.) is given as 1 894 076 M^−1 · s^−1. Besides, where the note is “ratio of k3/KI Casp2 to Casp3”, the “Selectivity ratio (C2/C3)” value turned out to be 721.
Take `CC(C)[C@H](NC(=O)c1ccc2ccccc2n1)C(=O)N[C@@H](CC(=O)O)C(=O)N[C@H](C(=O)N1CC[C@H](CC(C)(C)C)[C@H]1C(=O)NN(CC(=O)O)C(=O)COc1c(F)cccc1F)C(C)C` [Compound 4, (S)-4-(((S)-1-((2S,3S)-2-(2-(carboxymethyl)-2-(2-(2,6-difluorophenoxy)acetyl)hydrazinecarbonyl)-3-neopentylpyrrolidin-1-yl)-3-methyl-1-oxobutan-2-yl)amino)-3-((S)-3-methyl-2-(quinoline-2-carboxamido)butanamido)-4-oxobutanoic acid] (Quinaldoyl-VDV[Pro(3S-CH2tBu)]-X3): the “type of inhibition (irreversible)” value is “irreversible inhibitor” and the “Selectivity for Caspase 2” value is given as “yes”.

These data come from patent US11407741B2, “Compounds and their use as selective inhibitors of caspase-2” (priority 2017, dated 2022).
